Measurements: article PMC11726150, “Pre‐ADMET studies of 5‐(3′,4′‐dihydroxyphenyl)‐γ‐valerolactone, the bioactive intestinal metabolite of proanthocyanidins” (Archiv Der Pharmazie, 2024)

What was measured:
[1] = design: method as in earlier work; conditions: healthy subjects, ref 43 (Di Pede et al.), cited from earlier work; for Cmax: human plasma, after PACs intake, read-out: C MAX (mean ± SD) in plasma; for average urinary excretion (% of ingested dose): human urine
[2] = In vitro transport study across 21‐day Caco2 monolayers; format: in vitro ADME, human; conditions: human, Caco-2, Caco2 model, N = 4; for Papp A→B at 120 min: absorptive direction, read-out: P app A–B (mean ± SD); for Papp A→B at 120 min / Papp B→A at 120 min: VL 50 μM dosed (VLS formed as metabolite), controls 10 μM; for Papp B→A at 120 min: secretory direction, read-out: P app B–A (mean ± SD); for efflux ratio at 120 min: Papp(B−A)/Papp(A−B), read-out: Efflux ratio (mean ± SD)
Description: (§1) Caco2 cells between passage numbers 42–50 and MDCK cells between passage numbers 21–26 were used for transport studies; the assay was conducted as reported by Volpe^[ [33] ^] with slight modifications. Transport experiments were performed in 12‐well Transwell plates. Caco2 cells were seeded at a density of 60,000 cells/cm^2 and grown for 21 days, with change of media every 3 days, while MDCK cells were seeded at a density of 70,000 cells/cm^2 and grown for 5 days, changing the medium daily. The physiological and morphological formation of a confluent monolayer was evaluated by measuring the TEER value: Caco2 monolayers became confluent 1 week after seeding with TEER values greater than 450 Ω/cm^2, while MDCK monolayers became confluent 24 h after seeding with TEER values greater than 90 Ω/cm^2. Phenol red and serum‐free DMEM/F12 medium was used as transport buffer. For bidirectional transport, VL (50 μM) and control compound (propranolol and paclitaxel, 10 μM) were added to the apical side to determine apical to basolateral transport (A–B; absorptive direction) and to the basal side to determine basolateral to apical transport (B–A; secretory direction). The volume of the apical and basolateral chambers was 0.5 and 1.5 mL, respectively. Aliquots of 120 μL were taken from the basolateral (for A–B transport) or the apical (for B–A transport) chamber at 30, 60, 90, and 120 min. An equal volume was replaced with a transport buffer at every time point. At the beginning and at the end of the experiment, an aliquot was also taken from the apical or basolateral chamber for analysis of the drug. To determine the integrity of monolayers, TEER values were measured before and after the experiment. In addition, at the end of the experiment cells were collected and lysed to evaluate the compound intake. Briefly, cells were washed twice with cold PBS and 200 µL of cold MeOH was added to detach and lysate the cells; subsequently, cells were collected into lo‐bind Eppendorf and sonicated in ice for 10 min, then centrifuged for 15 min at 4°C at 14,000 rpm (Eppendorf Centrifuge 5430 R). The supernatant was collected and used for further analysis.
(§2) The apparent permeability P app (cm/s) of compounds was calculated from the following equation (Equation 1), while P app (cm/s) of the metabolites was calculated from the equation (Equation 2): (1) Papp=dQ/dt×1/C×1/A.
(§3) Equation (1) for calculating P app (cm/s) of tested reference compounds. (2) Papp=Metabolic cleareance/A.
(§4) Equation (2) for calculating P app (cm/s) of compound metabolites.
(§5) with Metabolic cleareance=Rate of metabolism/C and where dQ/dt is the rate of transport, C is the initial concentration in the donor compartment, and A is the surface area of the filter. To quantify the rate of transport, cumulative amounts of test compounds were plotted against time (min).
(§6) Efflux ratio was calculated using the following equation (Equation 3)^[ [48] ^]: (3) Efflux ratio=Papp(B−A)/Papp(A−B).

Caco2 monolayers = assay: as above; format: in vitro ADME, human; conditions: Caco2 model, VL 50 μM dosed (VLS formed as metabolite), controls 10 μM, N = 4; for P app A–B (mean ± SD): absorptive direction; for P app B–A (mean ± SD): secretory direction
Description: as §1, §2, §3, §4, §5, §6

[3] = In vitro transport study across 5‐day Wt‐MDCK monolayers; format: in vitro ADME, canine; conditions: dog, Wt‐MDCK model, N = 4; for Papp A→B at 120 min: absorptive direction, read-out: P app A–B (mean ± SD); for Papp A→B at 120 min / Papp B→A at 120 min: VL 50 μM dosed (VLS formed as metabolite), controls 10 μM; for Papp B→A at 120 min: secretory direction, read-out: P app B–A (mean ± SD); for efflux ratio at 120 min: Papp(B−A)/Papp(A−B), read-out: Efflux ratio (mean ± SD)
Description: as §1, §2, §3, §4, §5, §6

Wt‐MDCK monolayers = assay: as above; format: in vitro ADME, canine; conditions: Wt‐MDCK model, VL 50 μM dosed (VLS formed as metabolite), controls 10 μM, N = 4; for P app A–B (mean ± SD): absorptive direction; for P app B–A (mean ± SD): secretory direction
Description: as §1, §2, §3, §4, §5, §6

P‐gp = assay: Rhodamine‐123 uptake assay, induction (48 h), differentiated Caco2 cells; format: cell-based, human; conditions: 10 µM, 48 h treatment; 0.1% DMSO vehicle control = 100%
Description: P‐gp modulation was determined in differentiated Caco2 cells by Rh‐123 uptake assay.^[ [49] ^] In brief, cells in the logarithmic growth phase with 70%–80% confluency were harvested and seeded at a density of 2 × 10^4/well of a 96‐well plate. Cells were allowed to grow for 21 days in a CO2 incubator changing the medium every other day.
After treatment, cells were washed with Hank's buffer and 200 μL of phenol, and serum‐free DMEM/F12 medium containing […] of Rh‐123 was added and cells were incubated for 90 min. The final steps were as described previously.

PXR = biological target: T1, PXR (Homo sapiens, UniProt O75469); format: cell-based; design: expressed in transfected cells; host or cells: HepG2 and LS174T cells, transient electroporation; conditions: HepG2 cells, 10 µM
T1 sequence (O75469 1-434): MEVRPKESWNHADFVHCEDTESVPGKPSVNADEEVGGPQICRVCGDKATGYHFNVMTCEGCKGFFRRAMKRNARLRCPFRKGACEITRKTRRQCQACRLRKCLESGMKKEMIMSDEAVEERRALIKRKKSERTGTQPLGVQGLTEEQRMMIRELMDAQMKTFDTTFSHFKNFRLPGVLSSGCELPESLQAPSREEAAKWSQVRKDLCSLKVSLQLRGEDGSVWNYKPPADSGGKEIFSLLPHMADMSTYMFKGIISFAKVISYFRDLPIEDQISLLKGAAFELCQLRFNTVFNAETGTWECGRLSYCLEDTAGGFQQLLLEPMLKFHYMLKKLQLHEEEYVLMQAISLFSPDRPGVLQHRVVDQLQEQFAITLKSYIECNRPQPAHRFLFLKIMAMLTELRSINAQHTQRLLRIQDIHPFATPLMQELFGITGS
Description: The PXR activation potential of VL was determined in transiently transfected HepG2 and LS174T cells as described earlier.^[ [50] ^] In brief, 24‐h‐old cells having 70%−80% confluency were trypsinized and transfected with pSG5‐hPXR (25 μg) and PCR‐5 (25 μg) plasmid DNA by electroporation at 180 V (1 pulse for 70 ms). Cells were incubated at room temperature for 8 min and floating dead cells were carefully removed. Cells were seeded in 96‐well plates at a density of 50,000 cells/well. […] Following 24 h of incubation, the culture medium was aspirated and 40 μL of luciferase reagent (Promega Corporation) was added to each well. Luminescence was measured using a Spectramax M5 plate reader (Molecular Devices) and the fold increase in luciferase activity among sample‐treated cells was calculated in comparison with the vehicle‐treated (DMSO) cells.

Caco2 cells = assay: MTT cell viability assay; format: cell-based, human; conditions: Caco2, 20 μM, data not shown
Description: (§7) The effect of test samples on cell viability was measured using an MTT assay. Briefly, exponentially growing 2 × 10^4 cells/200 μL were seeded in 96‐well plates and allowed to grow until reaching their differentiation state. Cells were treated with different concentrations of VL (50–1.6 µM) and positive control camptothecin (30–1 μM) serially diluted in serum‐free medium. After incubation, 10 μL of MTT dye (5 mg/mL stock in PBS) was added to each well, and plates were additionally incubated for 4 h. Further, media were aspirated, and cells were washed with 100 μL of phosphate buffer saline. The formazan blue crystals formed by viable cells were dissolved in 150 μL of DMSO, and the absorbance was measured at 580 nm on a Bio‐Tek, Synergy HT Multi‐Mode, plate reader. The % decrease in viability of sample‐treated cells was calculated compared with vehicle‐treated cells.^[ [46] ^]

HepG2 cells = assay: MTT cell viability assay; format: cell-based, human; conditions: HepG2, 20 μM, data not shown
Description: as §7

LS174T cells = assay: MTT cell viability assay; format: cell-based, human; conditions: 20 μM, data not shown
Description: as §7

Wt‐MDCK cells = assay: MTT cell viability assay; format: cell-based, canine; conditions: 20 μM, data not shown
Description: as §7

In the case of `O=C1CC[C@H](Cc2ccc(OS(=O)(=O)O)c(O)c2)O1` [3ʹ‐OH‐PVL‐4ʹ‐sulfate], the Cmax [1] is listed as 368 ± 156 nM and the “average urinary excretion (% of ingested dose)” value [1] is listed as 11.3% ± 14.8%.
For `O=C1CC[C@H](Cc2ccc(O)c(OC3OC(C(=O)O)C(O)C(O)C3O)c2)O1` (stereo partly shown) [4ʹ‐OH‐PVL‐3ʹ‐glucuronide], the Cmax [1] is given as 229 ± 345 nM and the “average urinary excretion (% of ingested dose)” value [1] is given as 3.1% ± 3.3%.
`CC(=O)O[C@H]1C(=O)[C@@]2(C)[C@H]([C@H](OC(=O)c3ccccc3)[C@]3(O)C[C@H](OC(=O)[C@H](O)[C@@H](NC(=O)c4ccccc4)c4ccccc4)C(C)=C1C3(C)C)[C@]1(OC(C)=O)CO[C@@H]1C[C@@H]2O` [Paclitaxel] showed a Papp A→B at 120 min [2] of 1.2 ×10⁻⁶ cm/s, a Papp B→A at 120 min [2] of 3.42 ×10⁻⁶ cm/s and an efflux ratio at 120 min [2] of 2.54 ± 2.06. The “P app A–B (mean ± SD)” value (Caco2 monolayers) was 1.202 ×10⁻⁶ cm/s, the “P app B–A (mean ± SD)” value (Caco2 monolayers) was 3.421 ×10⁻⁶ cm/s and the Papp A→B at 120 min [3] was 5.18 ×10⁻⁶ cm/s. For the same compound, the Papp B→A at 120 min [3] was 2.95 ×10⁻⁶ cm/s, the efflux ratio at 120 min [3] was 0.55 ± 0.089 and the “P app A–B (mean ± SD)” value (Wt‐MDCK monolayers) was 5.183 ×10⁻⁶ cm/s. The “P app B–A (mean ± SD)” value (Wt‐MDCK monolayers) was 2.952 ×10⁻⁶ cm/s.
For `CC(C)NCC(O)COc1cccc2ccccc12` (stereo not shown) [Propranolol], the Papp A→B at 120 min [2] was 15.4 ×10⁻⁶ cm/s, the Papp B→A at 120 min [2] was 13 ×10⁻⁶ cm/s and the efflux ratio at 120 min [2] was 0.859 ± 0.085. The “P app A–B (mean ± SD)” value (Caco2 monolayers) was 15.39 ×10⁻⁶ cm/s, the “P app B–A (mean ± SD)” value (Caco2 monolayers) was 12.96 ×10⁻⁶ cm/s and the Papp A→B at 120 min [3] was 10.1 ×10⁻⁶ cm/s. The Papp B→A at 120 min [3] was 5.36 ×10⁻⁶ cm/s, the efflux ratio at 120 min [3] was 0.535 ± 0.058 and the “P app A–B (mean ± SD)” value (Wt‐MDCK monolayers) was 10.05 ×10⁻⁶ cm/s. For the same compound, the “P app B–A (mean ± SD)” value (Wt‐MDCK monolayers) was 5.364 ×10⁻⁶ cm/s.
In the case of `CO[C@H]1/C=C/O[C@@]2(C)Oc3c(C)c(O)c4c(O)c(c(/C=N/N5CCN(C)CC5)c(O)c4c3C2=O)NC(=O)/C(C)=C\C=C\[C@H](C)[C@H](O)[C@@H](C)[C@@H](O)[C@@H](C)[C@H](OC(C)=O)[C@@H]1C` [RIF, rifampicin, reference compound], the “intracellular accumulation of Rh‐123” value (P‐gp) is reported as 75% and the PXR activation (PXR) is reported as 3.4 folds.
In the case of `CC[C@@]1(O)C(=O)OCc2c1cc1n(c2=O)Cc2cc3ccccc3nc2-1` [camptothecin], the “effect on cell viability” value (Caco2 cells) is reported as “dramatically reduced the viability”, the “effect on cell viability” value (HepG2 cells) is reported as “dramatically reduced the viability” and the “effect on cell viability” value (LS174T cells) is reported as “dramatically reduced the viability”. For the same compound, the “effect on cell viability” value (Wt‐MDCK cells) was “dramatically reduced the viability”.
With `COc1cccc2c1C(=O)c1c(O)c3c(c(O)c1C2=O)C[C@@](O)(C(=O)CO)C[C@@H]3O[C@H]1C[C@H](N)[C@H](O)[C@H](C)O1` [doxorubicin] the “effect on cell viability” value (Caco2 cells) was “dramatically reduced the viability”, the “effect on cell viability” value (HepG2 cells) was “dramatically reduced the viability” and the “effect on cell viability” value (LS174T cells) was “dramatically reduced the viability”. The “effect on cell viability” value (Wt‐MDCK cells) was “dramatically reduced the viability”.
